Measured values taken from article PMC5216056 (Nature Communications, 2017).
“And” between values parts separate entries of the source, which are not always exact repeats. Equal entries are not always repeated. Where two headings read alike, the source gives them in different places.

Columns and labels:
PCP = type: binding; conditions: 10 µM
FAAH = target: T1, FAAH (Homo sapiens, UniProt O00519); test: FAAH activity, U937 cell homogenate; type: biochemical; conditions: for inhibition at 5 µM: read-out: FAAH % inhibition at 5 µM
T1 construct: host or cells: U937
T1 sequence (O00519 1-579): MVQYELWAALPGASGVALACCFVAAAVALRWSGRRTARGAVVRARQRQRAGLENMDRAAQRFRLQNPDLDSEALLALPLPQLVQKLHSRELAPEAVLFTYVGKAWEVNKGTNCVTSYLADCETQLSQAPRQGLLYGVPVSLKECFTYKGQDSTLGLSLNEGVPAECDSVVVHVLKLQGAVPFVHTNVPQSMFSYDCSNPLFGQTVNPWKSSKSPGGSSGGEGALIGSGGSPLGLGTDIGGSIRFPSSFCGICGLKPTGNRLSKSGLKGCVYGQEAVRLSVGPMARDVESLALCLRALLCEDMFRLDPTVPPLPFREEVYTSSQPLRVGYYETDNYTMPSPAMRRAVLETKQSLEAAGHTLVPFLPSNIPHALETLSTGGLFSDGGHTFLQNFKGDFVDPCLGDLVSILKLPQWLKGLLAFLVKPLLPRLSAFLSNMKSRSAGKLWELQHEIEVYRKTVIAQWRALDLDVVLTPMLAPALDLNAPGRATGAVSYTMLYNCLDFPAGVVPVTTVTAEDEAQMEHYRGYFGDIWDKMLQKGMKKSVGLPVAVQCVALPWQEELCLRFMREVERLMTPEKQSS
Experimental: FAAH activity was assessed using U937 cell homogenate (source: U937 cells were purchased from ATCC, Manassas, VA, USA). Tested compounds (at the concentrations of 1 and 5 μM) or solvent (≤1% of the final volume) were pre-incubated at 37 °C for 30 min with 100 μg of cell homogenate diluted in assay buffer (10 mM Tris-HCl and 1 mM EDTA, pH 7.6 and 1% w/v fatty acid-free BSA). Successively, a mixture of 99.5 nM […] of AEA and 0.5 nM of [ethanolamine-1-3H]-AEA (40–60 Ci mmol^−1) was added to the homogenate (final concentration of 100 nM) and incubated for 10 min at 37 °C under shaking. After the incubation time, 2 volumes of an ice-cold methanol: chloroform mixture 1:1 (v/v) were added to each sample, vigorously vortexed and centrifuged at 10,000g for 10 min at 4 °C to separate aqueous and organic phases. The aqueous phases were collected and the radioactivity associated with the hydrolysis product [3H]-ethanolamine was measured after addition of 3 ml of scintillation cocktail using the Tri-Carb 2100 TR scintillation counter. Data were collected from three independent experiments performed in triplicate and results were expressed as FAAH activity, relative to that in vehicle-treated samples (=100%).

Rat recombinant TRPM8 = target: T2, Rat recombinant TRPM8 (Rattus norvegicus, UniProt Q8R455); test: TRP channel [Ca2+]i assay; type: cell-based; conditions: read-out: TRPM8 IC50 for antagonism of icilin
T2 construct: expressed in transfected cells; host or cells: HEK293 (TRPM8-HEK-293, gift from Mario van der Stelt)

hABHD12 = target: T3, hABHD12 (Homo sapiens, UniProt Q8N2K0); test: ABHD12 activity; type: biochemical; conditions: for ABHD12 % inhibition: single point
T3 construct: expressed in transfected cells
T3 sequence (Q8N2K0 1-398): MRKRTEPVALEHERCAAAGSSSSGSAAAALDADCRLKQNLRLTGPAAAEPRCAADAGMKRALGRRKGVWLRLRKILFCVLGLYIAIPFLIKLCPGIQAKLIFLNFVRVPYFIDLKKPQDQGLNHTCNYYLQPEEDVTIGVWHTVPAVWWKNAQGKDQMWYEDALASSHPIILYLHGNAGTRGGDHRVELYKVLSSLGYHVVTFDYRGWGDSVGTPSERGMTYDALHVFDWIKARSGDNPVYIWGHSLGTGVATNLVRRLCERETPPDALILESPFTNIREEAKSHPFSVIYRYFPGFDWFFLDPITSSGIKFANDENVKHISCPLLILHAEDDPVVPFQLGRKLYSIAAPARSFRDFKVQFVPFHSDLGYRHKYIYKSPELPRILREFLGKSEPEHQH
Text: HEK293T cells were obtained from American Type Culture Collection (ATCC, Manassas, VA, USA). Lipofectamine 2000 was obtained from Life Technologies (Carlsbad, CA, USA) and geneticin from InvivoGen. Cell culture medium, FBS, and cell culture supplements were from Invitrogen (Carlsbad, CA, USA). pCMV6-AC-hABHD6 and pCMV6-XL4-hABHD12 were a kind gift from Prof Jarmo T. Laitinen. hABHD12 sequence was subsequently inserted in a pcDNA3.1 plasmid in order to generate a stable cell line. The effect of CB2R ligands on ABHD6 and ABHD12 hydrolytic activity was determined using cell homogenate from hABHD6 and hABHD12 overexpressing HEK293T cells (40 μg total protein per condition). Samples were pre-incubated with the compounds (10 μM in the screening assay and concentrations in the range 1 nM—50 μM for the dose-response curves) in […] (pH=7.6) buffer containing 0.1%(w/v) BSA. DMSO was used as vehicle control and WWL70 10 μM or THL 20 μM as positive controls. [^3H]-2-OG (10 μM final concentration) was added and after incubation of 5 min at 37 °C, the reaction was stopped by the addition of 400 μl of ice-cold CHCl3:MeOH (1:1). The samples were vortex and centrifuged (16,100g 10 min 4 °C). Aliquots (200 μl) of the aqueous phase were assayed for tritium content by liquid scintillation spectroscopy. The values obtained for each measurement were corrected for non-specific hydrolysis (non-ABHD6 mediated) by subtracting the signal obtained in the hydrolysis of [^3H]- 2-OG by non-transfected HEK293T.

hCB1R [1] = target: T4, hCB1R (Homo sapiens, UniProt P21554); test: biochemical; type: biochemical; conditions: for Emax: read-out: Emax ± SEM GTPγS hCB1R
T4 construct: host or cells: CHO

hCB1R [2] = target: T4, hCB1R; test: cell-based; type: cell-based; conditions: for Emax: read-out: Emax ± SEM pERK hCB1R
[3] = 1 μM
MT3 (ML2) = target: T5, MT3 (ML2) (Mesocricetus auratus, UniProt A0ABM2YAB8); test: CEREP panel; type: binding; conditions: for % inhibition MT3 (ML2): 10 µM; for inhibition at 10 µM: read-out: % inhibition MT3 (ML2)
T5 construct: CEREP (contract assay)
T5 sequence (A0ABM2YAB8 1-231): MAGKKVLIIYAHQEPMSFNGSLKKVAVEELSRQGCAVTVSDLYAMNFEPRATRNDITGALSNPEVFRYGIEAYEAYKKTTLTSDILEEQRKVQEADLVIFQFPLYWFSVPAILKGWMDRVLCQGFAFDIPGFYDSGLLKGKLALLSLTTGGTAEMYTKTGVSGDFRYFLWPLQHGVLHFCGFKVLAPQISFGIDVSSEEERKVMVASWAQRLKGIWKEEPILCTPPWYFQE

[4] = vs icilin 0.1μM (second value in cell)
[5] = read-out: ABHD12 IC50 (95% CI), full dose-response

T2 sequence (Q8R455 whole entry): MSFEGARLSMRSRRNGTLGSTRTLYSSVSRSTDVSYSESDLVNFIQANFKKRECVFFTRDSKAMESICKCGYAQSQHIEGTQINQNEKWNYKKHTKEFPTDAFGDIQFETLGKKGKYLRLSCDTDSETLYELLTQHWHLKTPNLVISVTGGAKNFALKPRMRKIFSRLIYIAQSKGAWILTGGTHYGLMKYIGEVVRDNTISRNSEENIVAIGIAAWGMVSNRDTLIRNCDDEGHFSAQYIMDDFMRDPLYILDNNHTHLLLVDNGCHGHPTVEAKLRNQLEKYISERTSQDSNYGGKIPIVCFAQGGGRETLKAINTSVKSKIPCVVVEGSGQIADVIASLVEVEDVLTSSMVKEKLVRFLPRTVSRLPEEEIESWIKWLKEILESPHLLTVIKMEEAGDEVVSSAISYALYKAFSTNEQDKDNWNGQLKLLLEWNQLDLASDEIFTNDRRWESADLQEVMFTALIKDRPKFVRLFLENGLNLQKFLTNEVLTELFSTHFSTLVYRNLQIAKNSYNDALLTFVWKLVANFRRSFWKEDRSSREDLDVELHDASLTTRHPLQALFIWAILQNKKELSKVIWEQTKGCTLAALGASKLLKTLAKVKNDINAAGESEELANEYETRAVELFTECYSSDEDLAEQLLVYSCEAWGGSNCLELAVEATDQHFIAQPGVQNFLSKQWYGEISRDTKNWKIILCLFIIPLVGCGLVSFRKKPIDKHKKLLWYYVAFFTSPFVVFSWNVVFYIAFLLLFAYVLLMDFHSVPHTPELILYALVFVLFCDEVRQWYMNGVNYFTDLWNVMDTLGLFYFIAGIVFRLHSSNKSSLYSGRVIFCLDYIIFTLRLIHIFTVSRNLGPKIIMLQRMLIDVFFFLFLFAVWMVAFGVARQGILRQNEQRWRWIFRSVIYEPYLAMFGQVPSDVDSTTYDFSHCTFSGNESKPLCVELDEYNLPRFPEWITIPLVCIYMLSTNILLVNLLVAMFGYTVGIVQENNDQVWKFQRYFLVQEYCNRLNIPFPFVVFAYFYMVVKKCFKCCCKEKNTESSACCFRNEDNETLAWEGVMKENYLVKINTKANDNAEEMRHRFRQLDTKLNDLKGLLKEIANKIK
T4 sequence (P21554 whole entry): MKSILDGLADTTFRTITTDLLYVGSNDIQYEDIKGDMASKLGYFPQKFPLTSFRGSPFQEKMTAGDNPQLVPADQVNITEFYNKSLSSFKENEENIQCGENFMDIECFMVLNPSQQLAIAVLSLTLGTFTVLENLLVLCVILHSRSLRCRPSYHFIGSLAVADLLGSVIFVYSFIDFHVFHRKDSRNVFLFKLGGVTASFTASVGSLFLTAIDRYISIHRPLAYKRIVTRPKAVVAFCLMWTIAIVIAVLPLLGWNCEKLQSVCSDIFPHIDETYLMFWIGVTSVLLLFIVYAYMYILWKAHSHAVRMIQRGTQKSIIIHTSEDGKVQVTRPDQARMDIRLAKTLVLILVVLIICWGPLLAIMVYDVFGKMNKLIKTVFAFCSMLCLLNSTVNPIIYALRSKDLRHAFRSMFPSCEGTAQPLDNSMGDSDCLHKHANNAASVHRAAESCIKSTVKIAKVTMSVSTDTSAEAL

Compound | % inhibition PCP (PCP) | FAAH % inhibition at 5 µM (FAAH; 5 µM, U937 cell homogenate) | IC50 (Rat recombinant TRPM8; vs icilin […]) | ABHD12 % inhibition (hABHD12; 10 5 µM [sic]) | pEC50 ± SEM GTPγS hCB1R (hCB1R [1]) | Emax ± SEM pERK hCB1R (hCB1R [2]) | pEC50 ± SEM pERK hCB1R (hCB1R [2]) | CL hepatocytes mouse [3] | % inhibition MT3 (ML2) (MT3 (ML2)) | further results
CCCCCCC(C)(C)c1cc(OC)c(C2=C[C@H]3CC[C@]2(CO)C3(C)C)c(OC)c1 [HU910] | -25% | < 25% | > 100 µM | < 25% | < 5 | 12 ± 4 | < 4 | 34 µL/min/mio cells | – | –
CCCC(C)(C)c1ccc2c(c1)OC(C)(C)[C@@H]1CC=C(C)C[C@@H]21 [JWH133] | 2% | – | 48.4 ± 3.5 µM | – | 7.37 ± 0.16 | 10 ± 3 | < 4 | 9.8 µL/min/mio cells | – | Emax ± SEM GTPγS hCB1R (hCB1R [1]): 20%
CN1CCCCC1Cn1cc(C(=O)c2cc([N+](=O)[O-])ccc2I)c2ccccc21 (racemic) [(rac)-AM1241] | – | – | – | – | – | 86 ± 3 | 5.07 ± 0.05 | – | – | Emax ± SEM GTPγS hCB1R (hCB1R [1]): 42 ± 6
Cc1c(C(=O)c2cccc3ccccc23)c2cccc3c2n1[C@H](CN1CCOCC1)CO3 [WIN55212-2] | -3% | < 25% | 72.9 ± 4.5 µM | < 50% | – | – | – | 568 µL/min/mio cells | 69% | IC50 (Rat recombinant TRPM8; [4]): 19 ± 2.2 µM
SR144528 | -13% | – | – | – | – | -21 ± 2 | – | – | -21% | ABHD12 % inhibition (hABHD12): < 25%
Cc1ccc2c(c1)Cc1c(C(=O)NN3CCCCC3)nn(-c3ccc(Cl)cc3Cl)c1-2 [Gp-1a] | -1% | < 50% and 30–40% | > 50 µM | – | < 5 | 2 ± 3 | – | 78 µL/min/mio cells | 33% | IC50 (hABHD12; [5]): 0.8 µM
CCCn1c(C)c(C(=O)c2cccc3ccccc23)c2ccccc21 [JWH015] | -19% | – | – | – | – | – | – | 205 µL/min/mio cells | 49% | –
CCCCC/C=C\C/C=C\C/C=C\C/C=C\CCCC(=O)OC(CO)CO [2-AG, 2-arachidonoyl glycerol] | – | – | – | – | – | – | – | – | – | Emax (hCB1R [1]): 71 ± 20%; Emax (hCB1R [2]): 111 ± 10%
CN1CCCC[C@@H]1Cn1cc(C(=O)c2cc([N+](=O)[O-])ccc2I)c2ccccc21 [(R)-AM1241] | – | < 25% | > 50 µM | < 25% | 6.78 ± 0.40 | 78 ± 12 | 5.66 ± 0.19 | – | – | Emax ± SEM GTPγS hCB1R (hCB1R [1]): 47 ± 8
CCCCCCC(C)(C)c1cc(OC)c([C@@H]2C=C(CO)[C@@H]3C[C@H]2C3(C)C)c(OC)c1 [HU308] | -9% | – | – | – | – | – | – | – | – | inhibition at 5 µM (FAAH): < 25%; IC50 (Rat recombinant TRPM8; vs icilin […]μM): > 100 µM; EC50 (hCB1R [1]): > 10 µM; Emax (hCB1R [1]): 17 ± 9%; EC50 (hCB1R [2]): > 100 µM; Emax (hCB1R [2]): 18 ± 4%
Cc1c(C(=O)NN2CCCCC2)nn(-c2ccc(Cl)cc2Cl)c1-c1ccc(I)cc1 [AM251] | – | < 50% and 30–40% | – | – | – | – | – | – | – | IC50 (hABHD12; [5]): 1.6 µM
CCCCCCC(C)(C)c1ccc([C@@H]2C[C@H](O)CC[C@H]2CCCO)c(O)c1 [CP55940] | 1% | – | – | – | – | – | – | – | – | Emax (hCB1R [1]): 92 ± 5%; inhibition at 10 µM (MT3 (ML2)): 22%
COc1ccc(C(=O)c2c(C)n(CCN3CCOCC3)c3cc(I)ccc23)cc1 [AM630] | 9% | – | 4.3 ± 0.3 µM | < 25% | – | – | – | 101 µL/min/mio cells | – | IC50 (Rat recombinant TRPM8; [4]): 1.9 ± 0.1 µM
Cc1c(C(=O)NN2CCCCC2)nn(-c2ccc(Cl)cc2Cl)c1-c1ccc(Cl)cc1 [SR141716A] | – | – | – | – | – | – | – | – | – | inhibition at 5 µM (FAAH; 5 µM, U937 cell homogenate): < 25%; IC50 (Rat recombinant TRPM8; icilin concentration not given): 0.041 ± 0.0109 µM; IC50 (hABHD12): 6.1 µM; inhibition at 10 µM (MT3 (ML2)): 4%
CN1CCCC[C@H]1Cn1cc(C(=O)c2cc([N+](=O)[O-])ccc2I)c2ccccc21 [(S)-AM1241] | 2% | < 25% | > 50 µM | < 25% | < 5 | 17 ± 3 | < 4 | 251 µL/min/mio cells | 49% | –
